{"source": "paper doi:10.1101/2021.10.01.462758v2", "about": "(biorxiv, 2021)", "key": {"[1]": {"biological_target": "T1, D1R; D1 receptor fused to C-terminal RLuc (BRET assay) (Homo sapiens, UniProt P21728)", "T1 sequence (P21728 whole entry, the tested form may be a part)": "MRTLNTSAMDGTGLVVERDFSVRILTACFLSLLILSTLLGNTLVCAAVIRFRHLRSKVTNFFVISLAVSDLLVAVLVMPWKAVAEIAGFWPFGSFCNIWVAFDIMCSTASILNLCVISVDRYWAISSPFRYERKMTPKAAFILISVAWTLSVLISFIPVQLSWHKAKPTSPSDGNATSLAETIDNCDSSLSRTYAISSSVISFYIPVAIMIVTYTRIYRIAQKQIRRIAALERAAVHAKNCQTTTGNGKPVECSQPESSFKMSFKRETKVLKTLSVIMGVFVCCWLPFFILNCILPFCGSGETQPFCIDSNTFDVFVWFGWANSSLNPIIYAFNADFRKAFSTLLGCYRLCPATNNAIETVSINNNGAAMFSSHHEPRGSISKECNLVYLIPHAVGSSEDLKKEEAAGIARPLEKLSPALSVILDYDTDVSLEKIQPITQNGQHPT", "experiment": "BRET beta-arrestin2 recruitment, HEK293T", "type": "cell-based"}, "[2]": {"biological_target": "T2, D2R; D2Long receptor fused to C-terminal RLuc (BRET assay) (Homo sapiens, UniProt P14416)", "T2 sequence (P14416 whole entry, the tested form may be a part)": "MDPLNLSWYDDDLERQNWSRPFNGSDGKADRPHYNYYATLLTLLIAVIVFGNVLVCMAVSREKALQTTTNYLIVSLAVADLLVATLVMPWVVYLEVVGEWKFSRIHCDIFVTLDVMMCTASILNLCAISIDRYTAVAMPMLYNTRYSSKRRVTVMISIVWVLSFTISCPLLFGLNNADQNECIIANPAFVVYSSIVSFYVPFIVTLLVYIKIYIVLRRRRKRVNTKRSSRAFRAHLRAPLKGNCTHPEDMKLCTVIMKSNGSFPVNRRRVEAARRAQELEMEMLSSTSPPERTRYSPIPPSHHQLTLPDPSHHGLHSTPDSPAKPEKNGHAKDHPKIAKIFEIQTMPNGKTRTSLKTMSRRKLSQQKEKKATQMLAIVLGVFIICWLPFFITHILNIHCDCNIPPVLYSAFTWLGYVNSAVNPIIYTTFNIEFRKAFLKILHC", "experiment": "cell-based", "parameters": "species or system HEK293T"}, "[3]": {"biological_target": "T1, D1R; D1 receptor fused to C-terminal RLuc (BRET assay)", "experiment": "cell-based", "parameters": "species or system HEK293T", "settings": "HEK-293T, read-out: β-arrestin Emax (%), D1R"}, "[4]": {"biological_target": "T2, D2R; D2Long receptor fused to C-terminal RLuc (BRET assay)", "experiment": "cell-based", "parameters": "species or system HEK293T", "settings": "HEK-293T, read-out: β-arrestin Emax (%), D2R"}, "[5]": {"biological_target": "T2, D2R; D2Long receptor fused to C-terminal RLuc (BRET assay)", "experiment": "cell-based", "parameters": "species or system HEK293T", "settings": "for Emax: HEK-293T, read-out: β-arrestin Emax (%), D2R"}, "[6]": {"biological_target": "T1, D1R; D1 receptor fused to C-terminal RLuc (BRET assay)", "experiment": "cell-based", "parameters": "species or system HEK293T", "settings": "HEK-293T, read-out: β-arrestin Emax (%), D1R", "remark": "listed apart in the source"}, "[7]": {"biological_target": "T2, D2R; D2Long receptor fused to C-terminal RLuc (BRET assay)", "experiment": "cell-based", "parameters": "species or system HEK293T", "remark": "listed apart in the source"}, "[8]": {"biological_target": "T1, D1R; D1 receptor fused to C-terminal RLuc (BRET assay)", "experiment": "cell-based", "parameters": "species or system HEK293T", "settings": "HEK-293T, read-out: β-arrestin Emax (%), D1R", "remark": "listed apart in the source"}, "[9]": {"biological_target": "T2, D2R; D2Long receptor fused to C-terminal RLuc (BRET assay)", "experiment": "BRET beta-arrestin2 recruitment, HEK293T", "type": "cell-based"}, "[10]": {"biological_target": "T2, D2R; D2Long receptor fused to C-terminal RLuc (BRET assay)", "experiment": "cell-based", "parameters": "species or system HEK293T", "remark": "listed apart in the source"}, "[11]": {"biological_target": "T2, D2R; D2Long receptor fused to C-terminal RLuc (BRET assay)", "experiment": "cell-based", "parameters": "species or system HEK293T", "settings": "HEK-293T, read-out: β-arrestin Emax (%), D2R", "remark": "listed apart in the source"}, "[12]": {"biological_target": "T2, D2R; D2Long receptor fused to C-terminal RLuc (BRET assay)", "settings": "agonist"}, "[13]": {"biological_target": "T1, D1R; D1 receptor fused to C-terminal RLuc (BRET assay)", "experiment": "cell-based", "parameters": "species or system HEK293T", "settings": "HEK-293T, read-out: β-arrestin Emax (%), D1R", "remark": "listed apart in the source"}}, "note": "Where two headings read alike, the source gives them in different places.", "data": [{"smiles": "Oc1cccc(-c2cncc3ccccc23)c1O", "note": "[2h]", "values": [{"measurement": "EC50", "setting": "[1]", "result": 0.689, "unit": "µM"}, {"measurement": "EC50", "setting": "[2]", "result": "> 100", "unit": "µM"}, {"measurement": "Emax", "setting": "[3]", "result": "8.1 ± 2.1", "unit": "%"}]}, {"smiles": "Cc1cc(-c2cccc(O)c2O)cs1", "note": "[2a]", "values": [{"measurement": "EC50", "setting": "[1]", "result": 6.9, "unit": "µM"}, {"measurement": "Emax", "setting": "[4]", "result": "13.9 ± 3.68", "unit": "%"}, {"measurement": "Emax", "setting": "[3]", "result": "30.3 ± 5.6", "unit": "%"}]}, {"smiles": "Oc1cc2c(cc1O)[C@H](c1cccs1)[C@@H](NCc1ccccc1)CC2", "note": "(racemic) [1l]", "values": [{"measurement": "Emax", "setting": "[5]", "result": "8.62 ± 3.15", "unit": "%"}]}, {"smiles": "OCCCc1ccc(O)c(O)c1", "note": "[3b]", "values": [{"measurement": "EC50", "setting": "[1]", "result": 0.534, "unit": "µM"}, {"measurement": "Emax", "setting": "[6]", "result": "3.5 ± 1.9", "unit": "%"}, {"measurement": "EC50", "setting": "[7]", "result": "> 10", "unit": "µM"}]}, {"smiles": "Oc1cc2c(cc1O)[C@H]1c3cc(Br)sc3CN[C@@H]1CC2", "note": "[1c]", "values": [{"measurement": "Emax", "setting": "[5]", "result": "70.3 ± 3.41", "unit": "%"}, {"measurement": "Emax", "setting": "[8]", "result": "137 ± 9.35", "unit": "%"}]}, {"smiles": "Nc1cccc(-c2cccc(O)c2O)c1", "note": "[2g]", "values": [{"measurement": "EC50", "setting": "[1]", "result": 0.00733, "unit": "µM"}, {"measurement": "EC50", "setting": "[2]", "result": "> 100", "unit": "µM"}, {"measurement": "Emax", "setting": "[3]", "result": "4 ± 1.6", "unit": "%"}]}, {"smiles": "Oc1cccc(-c2cccnc2)c1O", "note": "[2d]", "values": [{"measurement": "EC50", "setting": "[1]", "result": 0.053, "unit": "µM"}, {"measurement": "EC50", "setting": "[2]", "result": "> 100", "unit": "µM"}, {"measurement": "Emax", "setting": "[3]", "result": "2.6 ± 1.8", "unit": "%"}]}, {"smiles": "CCCc1cc2c(s1)CN[C@@H]1CCc3cc(OC(C)=O)c(OC(C)=O)cc3[C@@H]21", "note": "[ABT-431]", "values": [{"measurement": "EC50", "setting": "[1]", "result": 3.2, "unit": "µM"}, {"measurement": "Emax", "setting": "[5]", "result": "23 ± 2.15", "unit": "%"}, {"measurement": "Emax", "setting": "[8]", "result": "88.2 ± 3.06", "unit": "%"}, {"measurement": "EC50", "setting": "[9]", "result": 3, "unit": "µM"}]}, {"smiles": "N[C@H]1CCc2cc(O)c(O)cc2[C@@H]1c1cccs1", "note": "(racemic) [1m]", "values": [{"measurement": "Emax", "setting": "[5]", "result": "27 ± 1.8", "unit": "%"}, {"measurement": "Emax", "setting": "[8]", "result": "3.7 ± 1.67", "unit": "%"}]}, {"smiles": "Oc1cc2c(cc1O)[C@H]1c3cc(-c4cccc(C(F)(F)F)c4)sc3CN[C@@H]1CC2", "note": "[1h]", "values": [{"measurement": "EC50", "setting": "[1]", "result": "> 10", "unit": "µM"}, {"measurement": "Emax", "setting": "[5]", "result": "73 ± 4.69", "unit": "%"}, {"measurement": "EC50", "setting": "[9]", "result": 4.84, "unit": "µM"}]}, {"smiles": "CN1Cc2sccc2[C@@H]2c3cc(O)c(O)cc3CC[C@H]21", "note": "(relative stereo) [1j]", "values": [{"measurement": "EC50", "setting": "[1]", "result": "> 10", "unit": "µM"}, {"measurement": "Emax", "setting": "[5]", "result": "73.4 ± 17.8", "unit": "%"}, {"measurement": "EC50", "setting": "[9]", "result": 7.48, "unit": "µM"}]}, {"smiles": "N#Cc1ccc(-c2cccc(O)c2O)cc1", "note": "[2c]", "values": [{"measurement": "EC50", "setting": "[10]", "result": 0.0317, "unit": "µM"}, {"measurement": "EC50", "setting": "[1]", "result": "> 10", "unit": "µM"}, {"measurement": "Emax", "setting": "[4]", "result": "1.61 ± 1.27", "unit": "%"}]}, {"smiles": "OCCc1ccc(O)c(O)c1", "note": "[3a]", "values": [{"measurement": "EC50", "setting": "[1]", "result": 0.229, "unit": "µM"}, {"measurement": "Emax", "setting": "[6]", "result": "11.5 ± 3.05", "unit": "%"}, {"measurement": "Emax", "setting": "[11]", "result": "9.98 ± 2.96", "unit": "%"}, {"measurement": "EC50", "setting": "[9]", "result": 5.26, "unit": "µM"}]}, {"smiles": "N#Cc1cccc(-c2cccc(O)c2O)c1", "note": "[2e]", "values": [{"measurement": "EC50", "setting": "[1]", "result": "> 10", "unit": "µM"}, {"measurement": "EC50", "setting": "[2]", "result": "> 100", "unit": "µM"}]}, {"smiles": "CCCc1cc2c(s1)CN[C@H]1CCc3cc(O)c(O)cc3[C@H]21", "note": "[(+)-A-86929]", "values": [{"measurement": "EC50", "setting": "[1]", "result": 2.8, "unit": "µM"}, {"measurement": "Emax", "setting": "[5]", "result": "38 ± 4.45", "unit": "%"}, {"measurement": "Emax", "setting": "[8]", "result": "94.1 ± 6.55", "unit": "%"}, {"measurement": "EC50", "setting": "[9]", "result": 2.07, "unit": "µM"}]}, {"smiles": "Oc1cccc(-c2cnc3ccccc3c2)c1O", "note": "[2i]", "values": [{"measurement": "EC50", "setting": "[1]", "result": "> 10", "unit": "µM"}, {"measurement": "EC50", "setting": "[2]", "result": "> 100", "unit": "µM"}]}, {"smiles": "Oc1cc2c(cc1O)[C@@H]1c3cc(-c4cccc(C(F)(F)F)c4)sc3CN[C@H]1CC2", "note": "[1i]", "values": [{"measurement": "EC50", "setting": "[1]", "result": "> 10", "unit": "µM"}, {"measurement": "EC50", "setting": "[9]", "result": "> 10", "unit": "µM"}]}, {"smiles": "Oc1cc2c(cc1O)[C@@H]1c3cc(Br)sc3CN[C@H]1CC2", "note": "[1d]", "values": [{"measurement": "EC50", "setting": "[1]", "result": 2.63, "unit": "µM"}, {"measurement": "Emax", "setting": "[5]", "result": "50.6 ± 4.02", "unit": "%"}, {"measurement": "Emax", "setting": "[8]", "result": "52.8 ± 9.7", "unit": "%"}, {"measurement": "EC50", "setting": "[9]", "result": 5.62, "unit": "µM"}]}, {"smiles": "NCCc1ccc(O)c(O)c1", "note": "[DA]", "values": [{"measurement": "D2R beta-arrestin Emax (%)", "setting": "[12]", "result": "90.29±3.23", "unit": "%"}, {"measurement": "β-arrestin Emax (%), D2R", "setting": "[5]; beta-arrestin2 recruitment, % of dopamine, agonist", "result": "90.29±3.23", "unit": "%"}]}, {"smiles": "Oc1cccc(-c2cccc(C(F)(F)F)c2)c1O", "note": "[2b]", "values": [{"measurement": "EC50", "setting": "[10]", "result": "> 10", "unit": "µM"}, {"measurement": "EC50", "setting": "[1]", "result": 0.0052, "unit": "µM"}, {"measurement": "Emax", "setting": "[3]", "result": "6.13 ± 3.11", "unit": "%"}]}, {"smiles": "NS(=O)(=O)c1ccc(-c2cccc(O)c2O)cc1", "note": "[2f]", "values": [{"measurement": "EC50", "setting": "[1]", "result": 0.0514, "unit": "µM"}, {"measurement": "EC50", "setting": "[2]", "result": "> 100", "unit": "µM"}, {"measurement": "Emax", "setting": "[3]", "result": "4.6 ± 1.5", "unit": "%"}]}, {"smiles": "CCCc1cc2c(s1)CN[C@@H]1CCc3cc(O)c(O)cc3[C@@H]21", "note": "[(-)-A-86929]", "values": [{"measurement": "EC50", "setting": "[1]", "result": 0.607, "unit": "µM"}, {"measurement": "Emax", "setting": "[5]", "result": "79.7 ± 3.83", "unit": "%"}, {"measurement": "Emax", "setting": "[8]", "result": "95.5 ± 6.88", "unit": "%"}, {"measurement": "EC50", "setting": "[9]", "result": 0.27, "unit": "µM"}]}, {"smiles": "COc1cccc(-c2ccc(O)c(O)c2)c1", "note": "[Z4642446630]", "values": [{"measurement": "Emax", "setting": "[13]", "result": "17.1 ± 5.3", "unit": "%"}, {"measurement": "EC50", "setting": "[1]; agonist mode, beta-arrestin2 pathway, pH […]", "result": 5.48, "unit": "µM"}]}, {"smiles": "Oc1cc2c(cc1O)[C@H]1c3cc(Br)sc3CN[C@@H]1CC2", "note": "(racemic) [1b]", "values": [{"measurement": "Emax", "setting": "[5]", "result": "60.3 ± 2.27", "unit": "%"}, {"measurement": "Emax", "setting": "[8]", "result": "138 ± 8.41", "unit": "%"}]}]}
